Experimental data from PubChem BioAssay AID2060620 (Molecular Pharmacology Branch, DTP, NCI, 2025).

Tested on: 328373-195-R-J1-PDC complex spheroids, viability % test/control
Assay: Anticancer human tumor 328373-195-R-J1-PDC patient-derived head and neck squamous carcinoma cell line growth inhibition [CLK]
Details: for IC50: curve of first compound; for viability, T/C: stronger effect = lower value
Text: A high-throughput screen of multi-cell type tumor spheroids was designed to identify active combinations of […] and targeted small molecules. Complex spheroids include a stromal component modeled by human endothelial cells (HUVEC) and fibroblasts modeled by human mesenchymal stem cells (MSCs). The concentration ranges selected for each drug and investigational agent were based upon clinically achievable concentrations if the clinical Cmax of the agent was known.
Compounds. The drugs and investigational agents: cirtuvivint (SM08502; NSC835563), CC-671 (NSC850746), vemurafenib (NSC761431), tapotoclax (NSC804041), sotorasib (NSC818433), adagrasib (NSC831453), MRTX-1133 (NSC836407), BAY2416964 (NSC825713), copanlisib (NSC816437), inavolisib (NSC800729), abemaciclib (NSC768073), osimertinib (NSC779217), entinostat (NSC756642), eltanexor (KPT-8602, NSC794443), venetoclax (NSC766270), ceralasertib (NSC777638), bortezomib (NSC756655), olaparib (NSC753686), talazoparib (NSC767125), alisertib (NSC759677), peposertib (NSC802822), gemcitabine (NSC613327), 5-fluorouracil (NSC19893), SN-38 (NSC673596), oxaliplatin (NSC266046), paclitaxel (NSC125973), and doxorubicin (NSC123127), were obtained from the National Cancer Institute (NCI) Developmental Therapeutics Program Chemical Repository. The FDA-approved anticancer drug set is available from the Developmental Therapeutics Program at https://dtp.cancer.gov/organization/dscb/obtaining/available plates.htm. […] The stock solutions were prepared in dimethyl sulfoxide (DMSO, Sigma-Aldrich, St. Louis, MO, cat. D2650), except for the platinum complexes which were prepared in saline (Quality Biological, Gaithersburg, MD, cat. 114-055-101), at 800-fold the tested concentration and stored at -70 degrees C prior to their use. All drugs and investigational agents were tested over a range starting from a high concentration at or near the clinical Cmax and decreasing in half-log increments. If the clinical Cmax for an agent had not been determined, the highest concentration tested was 10 microM.
Cell Culture. All cells were maintained in an incubator at 37 degrees C and 5% CO2 with 95% humidity. The PDC lines were cultured according to standard operating procedures established by the NCI PDMR. Briefly, all PDCs were thawed and cultured in Matrigel-coated flasks prepared with a working solution of 1X Ham's F-12 nutrient mix, without supplementation (Invitrogen, Waltham, MA, cat. 11765054), 100 U/mL penicillin-streptomycin (Invitrogen, cat. 15140122), and 2.5% Matrigel (Corning Inc., Corning, NY, cat. 354248) for the first three passages. The 947758-054-R-J2-PDC line was cultured in 6B/Colon 1A media, which includes advanced DMEM/F-12 (Thermo Fisher Scientific, cat. 12634028), 10 mM HEPES (Thermo Fisher Scientific, cat. 15630080), 1X GlutaMAX supplement (Thermo Fisher Scientific, cat. 35050061), 0.1 mg/mL primocin (InvivoGen, cat. ant-pm-2), 10% defined fetal bovine serum, heat inactivated (HyClone Laboratories Inc., cat. SH30070.03HI), 1.25 mM N-Acetyl-L-cysteine (Sigma-Aldrich, cat. A9165), 10 mM nicotinamide (Sigma-Aldrich, cat. N0636), 1X B-27 supplement (Thermo Fisher Scientific, cat. 17504044), 1X N-2 supplement (Thermo Fisher Scientific, cat. 17502048), and 10 microM Y-27632 dihydrochloride (Tocris Bioscience, cat. 1254). The 876862-298-R-J1-PDC was cultured in 6E media, which includes all 6B/Colon 1A media components plus 50% L-WRN conditioned media (ATCC, cat. CRL-3276), 50 ng/mL recombinant human EGF recombinant protein (hEGF; Thermo Fisher Scientific, cat. PHG0311), 10 ng/mL recombinant human fibroblast growth factor 10 (hGFG-10; PeproTech, cat. 100-26), 1 ng/mL recombinant human fibroblast growth factor 2 (hFGF-2; PeproTech, cat. 100-18B), and 1 µM prostaglandin E2 (PGE2; Tocris, cat. 2296). The 227483-062-R1-J1-PDC line was cultured in Panc media, containing all 6E components except hFGF-2, with the addition of 500 nM SB-431542 (Selleckchem, cat. S1067) and 10 nM gastrin (Tocris, cat. 3006). […]

[1] = second compound 0.0316 µM, first compound 0.0316 µM
[2] = second compound 0.0316 µM, first compound 0.1 µM
[3] = second compound 0.0316 µM, first compound 0.316 µM
[4] = second compound 0.0316 µM, first compound 1 µM
[5] = second compound 0.1 µM, first compound 0.0316 µM
[6] = second compound 0.1 µM, first compound 0.1 µM
[7] = second compound 0.1 µM, first compound 0.316 µM
[8] = second compound 0.1 µM, first compound 1 µM
[9] = second compound 0.316 µM, first compound 0.0316 µM
[10] = second compound 0.316 µM, first compound 0.1 µM
[11] = second compound 0.316 µM, first compound 0.316 µM
[12] = second compound 0.316 µM, first compound 1 µM
[13] = second compound 1 µM, first compound 0.0316 µM
[14] = second compound 1 µM, first compound 0.1 µM
[15] = second compound 1 µM, first compound 0.316 µM
[16] = second compound 1 µM, first compound 1 µM
[17] = second compound 3.16 µM, first compound 0.0316 µM
[18] = second compound 3.16 µM, first compound 0.1 µM
[19] = second compound 3.16 µM, first compound 0.316 µM
[20] = second compound 3.16 µM, first compound 1 µM
[21] = second compound 10 µM, first compound 0.0316 µM
[22] = second compound 10 µM, first compound 0.1 µM
[23] = second compound 10 µM, first compound 0.316 µM
[24] = second compound 10 µM, first compound 1 µM
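Further: spheroids exposed to the agents for 7 days.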

Compound: CC(CO)NC(=O)c1cc(-c2ccc(Cl)cc2)nn(-c2cnn(C)c2)c1=O (centres undefined) + CN1CCN(c2cc(C(=O)Nc3cc4cc(-c5cnn(C)c5)ccc4cn3)ccn2)CC1
- IC50 (second compound 0.0316 µM): > 10 µM
- IC50 (second compound 0.1 µM): > 10 µM
- IC50 (second compound 0.316 µM): < 0.0316 µM
- IC50 (second compound 1 µM): < 0.0316 µM
- IC50 (second compound 3.16 µM): < 0.0316 µM
- IC50 (second compound 10 µM): < 0.0316 µM
- viability, T/C [1]: 108%
- viability, T/C [2]: 99.5%
- viability, T/C [3]: 114%
- viability, T/C [4]: 106%
- viability, T/C (second compound 0.0316 µM, first compound 3.16 µM): 105%
- viability, T/C (second compound 0.0316 µM, first compound 10 µM): 97.6%
- viability, T/C [5]: 86.1%
- viability, T/C [6]: 92.1%
- viability, T/C [7]: 94.7%
- viability, T/C [8]: 98%
- viability, T/C (second compound 0.1 µM, first compound 3.16 µM): 92.6%
- viability, T/C (second compound 0.1 µM, first compound 10 µM): 82.6%
- viability, T/C [9]: 32.2%
- viability, T/C [10]: 39%
- viability, T/C [11]: 35.2%
- viability, T/C [12]: 39.5%
- viability, T/C (second compound 0.316 µM, first compound 3.16 µM): 38%
- viability, T/C (second compound 0.316 µM, first compound 10 µM): 33.9%
- viability, T/C [13]: 0.23%
- viability, T/C [14]: 0.27%
- viability, T/C [15]: 1.91%
- viability, T/C [16]: 1.81%
- viability, T/C (second compound 1 µM, first compound 3.16 µM): 1.3%
- viability, T/C (second compound 1 µM, first compound 10 µM): 2.16%
- viability, T/C [17]: 2.73%
- viability, T/C [18]: 1.98%
- viability, T/C [19]: 1.71%
- viability, T/C [20]: 0.57%
- viability, T/C (second compound 3.16 µM, first compound 3.16 µM): 3.9%
- viability, T/C (second compound 3.16 µM, first compound 10 µM): 2.11%
- viability, T/C [21]: 0.74%
- viability, T/C [22]: 0.62%
- viability, T/C [23]: 0.43%
- viability, T/C [24]: 1%
- viability, T/C (second compound 10 µM, first compound 3.16 µM): 0.24%
- viability, T/C (second compound 10 µM, first compound 10 µM): 3.1%

Compound: COc1c(OCCCN2CCOCC2)ccc2c3n(c(=NC(=O)c4cnc(N)nc4)nc12)CCN3 + CN1CCN(c2cc(C(=O)Nc3cc4cc(-c5cnn(C)c5)ccc4cn3)ccn2)CC1
- IC50 (second compound 0.0316 µM): 0.126 µM
- IC50 (second compound 0.1 µM): 0.0799 µM
- IC50 (second compound 0.316 µM): < 0.00316 µM
- IC50 (second compound 1 µM): < 0.00316 µM
- IC50 (second compound 3.16 µM): < 0.00316 µM
- IC50 (second compound 10 µM): < 0.00316 µM
- viability, T/C (second compound 0.0316 µM, first compound 0.00316 µM): 95.8%
- viability, T/C (second compound 0.0316 µM, first compound 0.01 µM): 93.9%
- viability, T/C [1]: 77.9%
- viability, T/C [2]: 52.7%
- viability, T/C [3]: 31.9%
- viability, T/C [4]: 9.52%
- viability, T/C (second compound 0.1 µM, first compound 0.00316 µM): 71.7%
- viability, T/C (second compound 0.1 µM, first compound 0.01 µM): 77.8%
- viability, T/C [5]: 63.5%
- viability, T/C [6]: 46.4%
- viability, T/C [7]: 23.2%
- viability, T/C [8]: 10.4%
- viability, T/C (second compound 0.316 µM, first compound 0.00316 µM): 32.5%
- viability, T/C (second compound 0.316 µM, first compound 0.01 µM): 35.3%
- viability, T/C [9]: 20.4%
- viability, T/C [10]: 17.1%
- viability, T/C [11]: 7.35%
- viability, T/C [12]: 4.17%
- viability, T/C (second compound 1 µM, first compound 0.00316 µM): 0.2%
- viability, T/C (second compound 1 µM, first compound 0.01 µM): 1.02%
- viability, T/C [13]: 0.29%
- viability, T/C [14]: 0.33%
- viability, T/C [15]: 0.18%
- viability, T/C [16]: 4.25%
- viability, T/C (second compound 3.16 µM, first compound 0.00316 µM): 0.08%
- viability, T/C (second compound 3.16 µM, first compound 0.01 µM): 3.15%
- viability, T/C [17]: 0.9%
- viability, T/C [18]: 0.09%
- viability, T/C [19]: 2.94%
- viability, T/C [20]: 0.12%
- viability, T/C (second compound 10 µM, first compound 0.00316 µM): 0.62%
- viability, T/C (second compound 10 µM, first compound 0.01 µM): 2.77%
- viability, T/C [21]: 0.15%
- viability, T/C [22]: 0.14%
- viability, T/C [23]: 1.52%
- viability, T/C [24]: 1.72%
